Assay results taken from patent US7629447B2, “Dideoxynucleoside derivatives” (Wako Pure Chemical Industries, Ltd., priority 2006, dated 2009).
[5NF] = 5'-amino-2'-fluoro-2',5'-dideoxyuridine unit, linked through its 5'-amino group; d = 2'-deoxy (DNA)

Legend:
[1] = test system: complementary DNA oligonucleotide (SEQ ID NO:7 or SEQ ID NO:8); assay: Thermal stability test, measurement of Tm (DNA/DNA match duplex); format: binding; settings: for Tm of the duplex DNA/DNA compared with that of T-1 (control) and T-2 (control), in words: versus oligonucleotides of only naturally occurring nucleosides; for Tm of the duplex DNA/DNA compared with that of T-1 (control) and T-2 (control), in words / Tm / ΔTm: duplex DNA/DNA; for Tm: 3 μM each oligonucleotide, 10 mM sodium phosphate buffer, 100 mM sodium chloride, pH 7.0, 20 to 90° C. at 0.5° C. per minute, absorbance at 260 nm; for ΔTm: difference from the matching control (T-1 or T-2)
Description: Using commercially available dT-CE phosphoramidite and dA-CE phosphoramidite (both of them were produced by Glen research Corp.) as materials, also using 3′-dT-CPG (1 μmol) packed in a column (produced by Glen research Corp.) as a starting material, oligonucleotides were synthesized according to the same method as in Example 2, in order to obtain oligonucleotides which were each complementary to UNF-1 and UNF-2 obtained in Example 2, respectively. The base sequences of oligonucleotides complementary to UNF-1 (SEQ ID NO:7) and complementary to UNF-2 (SEQ ID NO:8) are shown in Table 2 below.
Using UNF-1 and UNF-2, which were synthesized in Example 2, and complementary oligonucleotides thereto shown in Table 2 as materials, duplexes DNA/DNA were prepared according to the conventional method (R. Kierzek et al., Biochemistry, 1986, vol. 25, pp. 7840-7846).
Using the obtained duplex DNA/DNA, thermal stability test was carried out according to the conventional method.
(§1) That is, using a UV-2450 SPECTROPHOTOMETER equipped with a temperature-variable device (produced by Shimadzu Corp.), the oligonucleotides were placed in 8 consecutive 10 mm cells under the nitrogen atmosphere, and 10 mM of sodium phosphate buffer and 100 mM of sodium chloride (pH 7.0) were added thereto so that the concentration of each oligonucleotide became 3 μM, then the temperature was increased from 20° C. to 90° C. with a climbing rate of 0.5° C. per minute, and absorbance at 260 nm were measured.
(§2) A duplex DNA/DNA formed between TN-1 synthesized in Comparative Example 2 and a complementary oligonucleotide thereto represented by SEQ ID NO:7, and a duplex formed DNA/DNA between TN-2 synthesized in Comparative Example 2 and a complementary oligonucleotide thereto represented by SEQ ID NO:8 were synthesized according to the same method as in Example 3. The thermal stability of these duplex nucleic acids obtained was examined according to the same method as in Example 3.
as §2, with “In addition, a duplex” for “A duplex”, “between T-1 (control)” for “between TN-1”, “duplex DNA” for “duplex formed DNA/DNA”, “between T-2 (control)” for “between TN-2”, “3. Thermal” for “3. The thermal”, “3. The results were shown together in FIG. 1.” for “3.”

[2] = test system: complementary RNA oligonucleotide (SEQ ID NO:9 or SEQ ID NO:10); assay: Thermal stability test, measurement of Tm (DNA/RNA match duplex); format: binding; settings: for Tm of the duplex DNA/RNA compared with that of T-1 (control) and T-2 (control), in words: versus oligonucleotides of only naturally occurring nucleosides; for Tm of the duplex DNA/RNA compared with that of T-1 (control) and T-2 (control), in words / ΔTm / Tm: duplex DNA/RNA; for ΔTm: difference from the matching control (T-1 or T-2); for Tm: same method as Example 3 (3 μM, 10 mM sodium phosphate buffer, 100 mM sodium chloride, pH 7.0)
Protocol: as §1
Using commercially available rA-CE phosphoramidite, rU-CE phosphoramidite and rC-CE phosphoramidite as materials, also using 3′-dU-CPG (all of them were produced by Glen research Corp.) as a starting material, complementary oligonucleotides to each of UNF-1 and UNF-2 which were prepared in Example 2, were synthesized according to the same method as in Example 2.
Using UNF-1 and UNF-2, which were synthesized in Example 2, and the complementary oligonucleotides thereto shown in Table 2 as materials, a duplex DNA/RNA was prepared according to the conventional method (R. Kierzek et al., Biochemistry, 1986, vol. 25, pp. 7840-7846).
Using the obtained duplexes DNA/RNA, thermal stability test was carried out according to the same method as in Example 3.
A duplex DNA/RNA formed between TN-1 synthesized in Comparative Example 2 and a complementary oligonucleotide thereto represented by SEQ ID NO:9, and a duplex DNA/RNA formed between TN-2 synthesized in Comparative Example 2 and a complementary oligonucleotide thereto represented by SEQ ID NO:10 were synthesized according to the same method as in Example 4. Thermal stabilities of these duplex nucleic acids obtained were examined according to the same method as in Example 4.
In addition, a duplex DNA/RNA formed between T-1 (control) synthesized in Comparative Example 2 and a complementary oligonucleotide thereto represented by SEQ ID NO:9, and a duplex DNA formed between T-2 (control) synthesized in Comparative Example 2 and a complementary oligonucleotide thereto represented by SEQ ID NO:10 were synthesized according to the same method as in […]. Thermal stabilities of these duplex nucleic acids obtained were examined according to the same method as in Example 4.

Substance | Tm of the duplex DNA/DNA compared with that of T-1 (control) and T-2 (control), in words [1] | Tm [1] [°C] | ΔTm [1] | Tm of the duplex DNA/RNA compared with that of T-1 (control) and T-2 (control), in words [2] | ΔTm [2] | Tm [2] [°C] | Tm compared with that of UNF-1, in words ([1]; duplex DNA/DNA (Table 3), two UNFs versus one UNF) | Tm compared with that of UNF-1, in words ([2]; duplex DNA/RNA (Table 5), two UNFs versus one UNF)
TN-2: SEQ ID NO:4, 5′-(AAG GAA T^NT^NG AGG AAA GA)-3′; T^N = introduced 5′-aminothymidine (comparative) (AAGGAANNGAGGAAAGA; 5'-aminothymidines, chemistry not fully specified) | lower | 48.3 | −5.2 | lower | −5.0 | 39 | – | –
UNF-2: SEQ ID NO:2, 5′-(AAG GAA U^NFU^NFG AGG AAA GA)-3′; U^NF = introduced 5′-amino-2′-fluoro-2′,5′-dideoxyuridine (AAGGAAUUGAGGAAAGA; sugars from the 5' end d6 [5NF]2 d9, backbone not given here) | equivalent | 52.1 | −1.4 | equivalent | −0.5 | 43.5 | higher | higher
T-2 (control): SEQ ID NO:6, 5′-d(AAG GAA TTG AGG AAA GA)-3′; oligonucleotide comprising only naturally occurring nucleosides (AAGGAATTGAGGAAAGA; unmodified DNA) | – | 53.5 | – | – | – | 44 | – | –
TN-1: SEQ ID NO:3, 5′-(AAG GAA AT^NG AGG AAA GA)-3′; T^N = introduced 5′-aminothymidine (comparative) (AAGGAAANGAGGAAAGA; 5'-aminothymidine, chemistry not fully specified) | lower | 50.6 | −2.3 | lower | −4.4 | 37.7 | – | –
UNF-1: SEQ ID NO:1, 5′-(AAG GAA AU^NFG AGG AAA GA)-3′; U^NF = introduced 5′-amino-2′-fluoro-2′,5′-dideoxyuridine (AAGGAAAUGAGGAAAGA; sugars from the 5' end d7 [5NF]1 d9, backbone not given here) | equivalent | 51.8 | −1.1 | equivalent | −0.2 | 41.9 | – | –
T-1 (control): SEQ ID NO:5, 5′-d(AAG GAA ATG AGG AAA GA)-3′; oligonucleotide comprising only naturally occurring nucleosides (AAGGAAATGAGGAAAGA; unmodified DNA) | – | 52.9 | – | – | – | 42.1 | – | –
